Reference: patent US7739055B2, “Methods and systems for generating and evaluating peptides” (priority 2005, dated 2010)
Converted amounts (≈) assume the structure as drawn. Read-outs that look alike come from different tables or passages of the source. Where a SMILES comes first, the peptide text is derived from it.

What was measured:
[1] = first concentration that prohibits growth by OD at 24 hours, Table 1

MIC E. coli (Escherichia coli; [1]) | MIC B. cereus (B. cereus; [1]) | MIC E. coli (Escherichia coli; 24 h) [µg/mL] | MIC B. cereus (B. cereus; 24 h) [µg/mL] | Molecule | MIC B. cereus (B. cereus)
+ (MIC greater than 256 ug/mL) | + (MIC greater than 256 ug/mL) | – | – | LPVLFSSAIAKVGIKLGAKV [Shuffled 96] | –
+ (MIC greater than 256 ug/mL) | + (MIC greater than 256 ug/mL) | – | – | PVVGRVASKVFPAVIGLVKK [Peptide 45] | –
+ (MIC greater than 256 ug/mL) | + (MIC greater than 256 ug/mL) | – | – | GLKKDALQSIVKKAQLAAMG [Shuffled 9] | –
+ (MIC greater than 256 ug/mL) | + (MIC greater than 256 ug/mL) | – | – | FVGSLASKVVPSVFGAIKTK [Peptide 82] | –
+ (MIC greater than 256 ug/mL) | + (MIC greater than 256 ug/mL) | – | – | PYSLKNGENWLLSEEIIRYP [Peptide 50] | –
+ (MIC greater than 256 ug/mL) | + (MIC greater than 256 ug/mL) | – | – | SSSIPIKMVLVRALVFVKSG [Shuffled 55] | –
+ (MIC greater than 256 ug/mL) | + (MIC greater than 256 ug/mL) | – | – | TLVGVVAKLVATKIGSSPRA [Shuffled 56] | –
+ (MIC greater than 256 ug/mL) | + (MIC greater than 256 ug/mL) | – | – | VKRAGKGVAVVPSPLFKIVV [Shuffled 45] | –
+ (MIC greater than 256 ug/mL) | + (MIC greater than 256 ug/mL) | – | – | SAVGSVASKVVPSLISKVTK [Peptide 36] | –
+ (MIC greater than 256 ug/mL) | + (MIC greater than 256 ug/mL) | – | – | LSAVGKIASKVVPSVIGAFK [Peptide 6] | –
+ (MIC greater than 256 ug/mL) | + (MIC greater than 256 ug/mL) | – | – | IASAVPVCVKGKISKSYISV [Shuffled 44] | –
+ (MIC greater than 256 ug/mL) | + (MIC greater than 256 ug/mL) | – | – | RKRKSDVDFEAEFELFEDDD [Peptide 19] | –
+ (MIC greater than 256 ug/mL) | + (MIC greater than 256 ug/mL) | – | – | TAKVVVFVSFSYVVPKKRAC [Shuffled 2] | –
+ (MIC greater than 256 ug/mL) | + (MIC greater than 256 ug/mL) | – | – | LPAVFKLASKVVPSVFGLVK [Peptide 42] | –
+ (MIC greater than 256 ug/mL) | + (MIC greater than 256 ug/mL) | – | – | KSPFVLVVSSRVAAVIKSLP [Shuffled 25] | –
+ (MIC greater than 256 ug/mL) | + (MIC greater than 256 ug/mL) | – | – | SVKPVGSSVVKGTALVKFFG [Shuffled 34] | –
+ (MIC greater than 256 ug/mL) | + (MIC greater than 256 ug/mL) | – | – | GVSSPIVAVKFKGAVASLIK [Shuffled 6] | –

MIC E. coli (Escherichia coli; [1]) | MIC B. cereus (B. cereus; [1]) | MIC E. coli (Escherichia coli; 24 h) [µg/mL] | MIC B. cereus (B. cereus; 24 h) [µg/mL] | Molecule | MIC B. cereus (B. cereus)
– | + (MIC greater than 256 ug/mL) | 256 (≈ 120 µM) | – | CC[C@H](C)[C@H](NC(=O)[C@H](CCSC)NC(=O)[C@H](CO)NC(=O)[C@@H](NC(=O)[C@H](CC(C)C)NC(=O)[C@H](CO)NC(=O)[C@@H]1CCCN1C(=O)[C@@H](NC(=O)[C@@H](NC(=O)[C@H](CCCCN)NC(=O)[C@H](CO)NC(=O)[C@H](C)NC(=O)[C@@H](NC(=O)[C@H](CCCNC(=N)N)NC(=O)CNC(=O)[C@@H](NC(=O)[C@H](Cc1ccccc1)NC(=O)[C@H](CO)NC(=O)[C@@H](N)CC(C)C)C(C)C)C(C)C)C(C)C)C(C)C)[C@@H](C)CC)C(=O)N[C@@H](CCCCN)C(=O)O [Peptide 55] (H-LSFVGRVASKVVPSLISMIK-OH; N-terminus and C-terminus assumed) | –
+ (MIC greater than 256 ug/mL) | + (MIC greater than 256 ug/mL) | – | – | VFSVKGGKPSVVIKVVVAST [Shuffled 69] | –
+ (MIC greater than 256 ug/mL) | – | – | 256 (≈ 127 µM) | CC[C@H](C)[C@H](NC(=O)[C@H](CC(C)C)NC(=O)CNC(=O)[C@@H](NC(=O)[C@@H](NC(=O)[C@H](C)NC(=O)[C@@H]1CCCN1C(=O)[C@@H](NC(=O)[C@@H](NC(=O)[C@H](CCCCN)NC(=O)[C@H](CO)NC(=O)[C@H](C)NC(=O)[C@H](CC(C)C)NC(=O)[C@H](CO)NC(=O)[C@H](Cc1ccccc1)NC(=O)[C@H](CC(C)C)NC(=O)[C@H](C)NC(=O)CN)C(C)C)C(C)C)C(C)C)[C@@H](C)CC)C(=O)N[C@@H](CCCCN)C(=O)N[C@@H](CCCCN)C(=O)O [Peptide 96] (H-GALFSLASKVVPAVIGLIKK-OH; N-terminus and C-terminus assumed) | –
+ (MIC greater than 256 ug/mL) | + (MIC greater than 256 ug/mL) | – | – | KGRGKQGGKVRAKAKTRSS [Parasin] | –
– | – | 64 (≈ 30.4 µM) | 32 (≈ 15.2 µM) | CC[C@H](C)[C@H](NC(=O)[C@H](CCSC)NC(=O)[C@H](C)NC(=O)[C@@H]1CCCN1C(=O)[C@@H](NC(=O)[C@@H](NC(=O)[C@H](CCCCN)NC(=O)[C@@H](NC(=O)[C@H](CC(C)C)NC(=O)CNC(=O)CNC(=O)[C@H](CC(C)C)NC(=O)[C@@H](N)Cc1ccccc1)[C@@H](C)CC)[C@@H](C)CC)C(C)C)C(=O)N[C@@H](CS)C(=O)N[C@@H](C)C(=O)N[C@H](C(=O)N[C@H](C(=O)N[C@@H](CCCCN)C(=O)N[C@@H](CCCCN)C(=O)N[C@@H](CS)C(=O)O)[C@@H](C)O)C(C)C [Ranalexin] (H-FLGGLIKIVPAMICAVTKKC-OH; N-terminus and C-terminus assumed) | –
+ (MIC greater than 256 ug/mL) | + (MIC greater than 256 ug/mL) | – | – | KYGPALVIAVKKSCSLTFRA [Shuffled 23] | –
+ (MIC greater than 256 ug/mL) | + (MIC greater than 256 ug/mL) | – | – | MVVFSVPKFKSTVAKLLSSA [Shuffled 1] | –
+ (MIC greater than 256 ug/mL) | + (MIC greater than 256 ug/mL) | – | – | KVYVVKIAVPCFPKSARSVS [Shuffled 29] | –
+ (MIC greater than 256 ug/mL) | + (MIC greater than 256 ug/mL) | – | – | PVIGKLASKVVPSVFSMIKR [Peptide 7] | –
+ (MIC greater than 256 ug/mL) | + (MIC greater than 256 ug/mL) | – | – | SVVFGVASKVVPSVIGKVKT [Peptide 69] | –
+ (MIC greater than 256 ug/mL) | + (MIC greater than 256 ug/mL) | – | – | SALGRVASKVFPAVYCSITK [Peptide 15] | –
+ (MIC greater than 256 ug/mL) | + (MIC greater than 256 ug/mL) | – | – | PKVVGLSIVVVKAKVSSALG [Shuffled 57] | –
+ (MIC greater than 256 ug/mL) | + (MIC greater than 256 ug/mL) | – | – | GVVGKLASKVVPSVFGSFTK [Peptide 34] | –
+ (MIC greater than 256 ug/mL) | + (MIC greater than 256 ug/mL) | – | – | VIAFAKTKEAKAKLKGQAKG [Shuffled 77] | –
+ (MIC greater than 256 ug/mL) | + (MIC greater than 256 ug/mL) | – | – | LYSPTCVKAAVSRFIGKVSA [Shuffled 15] | –
+ (MIC greater than 256 ug/mL) | + (MIC greater than 256 ug/mL) | – | – | FMKVLAVFGSVVTSAPKASK [Shuffled 31] | –
+ (MIC greater than 256 ug/mL) | + (MIC greater than 256 ug/mL) | – | – | SKFPLAGIFSVPGVKRVVVI [Shuffled 75] | –

Molecule | MIC E. coli (Escherichia coli; [1]) | MIC B. cereus (B. cereus; [1]) | MIC E. coli (Escherichia coli; 24 h) [µg/mL] | MIC B. cereus (B. cereus; 24 h) [µg/mL] | MIC B. cereus (B. cereus)
MKSIAKFIAKTVAKQGAKQG [Peptide 39] | + (MIC greater than 256 ug/mL) | – | – | – | + (key: +: MIC greater than 256 ug/mL; ++: MIC greater than 128 ug/mL, not sufficiently soluble to test as 256 ug/mL)
PVVFSVASKVVPSLISALKR [Peptide 25] | + (MIC greater than 256 ug/mL) | – | – | – | + (key: +: MIC greater than 256 ug/mL; ++: MIC greater than 128 ug/mL, not sufficiently soluble to test as 256 ug/mL)
VDKGSYLPRPTPPRPIYNRN [Pyrrhocoricin] | ++ (MIC greater than 128 ug/mL, not sufficiently soluble to test as 256 ug/mL) | – | – | – | ++ (key: +: MIC greater than 256 ug/mL; ++: MIC greater than 128 ug/mL, not sufficiently soluble to test as 256 ug/mL)
FKVVISKPGLSVRVGTALVT [Shuffled 65] | ++ (MIC greater than 128 ug/mL, not sufficiently soluble to test as 256 ug/mL) | ++ (MIC greater than 128 ug/mL, not sufficiently soluble to test as 256 ug/mL) | – | – | –
PSLLYKAKAVFCKPSAVAVF [Shuffled 62] | ++ (MIC greater than 128 ug/mL, not sufficiently soluble to test as 256 ug/mL) | ++ (MIC greater than 128 ug/mL, not sufficiently soluble to test as 256 ug/mL) | – | – | –
CC[C@H](C)[C@H](NC(=O)[C@@H](NC(=O)[C@H](CCCCN)NC(=O)[C@H](C)NC(=O)[C@H](CC(C)C)NC(=O)[C@H](CCCCN)NC(=O)[C@H](CCCCN)NC(=O)CN)[C@@H](C)O)C(=O)N[C@@H](C)C(=O)N[C@@H](CCCCN)C(=O)N[C@@H](CCC(=O)O)C(=O)N[C@H](C(=O)N[C@@H](C)C(=O)N[C@@H](CCCCN)C(=O)N[C@@H](CCC(N)=O)C(=O)NCC(=O)N[C@@H](C)C(=O)N[C@@H](CCCCN)C(=O)N[C@@H](Cc1ccccc1)C(=O)N[C@@H](C)C(=O)O)C(C)C [Peptide 77] (H-GKKLAKTIAKEVAKQGAKFA-OH) | 64 µg/mL (≈ 30.7 µM) | – | – | – | + (key: +: MIC greater than 256 ug/mL; ++: MIC greater than 128 ug/mL, not sufficiently soluble to test as 256 ug/mL)
KIVKVITVKSISPASLVPVF [Shuffled 83] | ++ (MIC greater than 128 ug/mL, not sufficiently soluble to test as 256 ug/mL) | ++ (MIC greater than 128 ug/mL, not sufficiently soluble to test as 256 ug/mL) | – | – | –
CC[C@H](C)[C@H](NC(=O)CN)C(=O)NCC(=O)N[C@@H](C)C(=O)N[C@H](C(=O)N[C@@H](CC(C)C)C(=O)N[C@@H](CCCCN)C(=O)N[C@H](C(=O)N[C@@H](CC(C)C)C(=O)N[C@H](C(=O)N[C@H](C(=O)NCC(=O)N[C@@H](CC(C)C)C(=O)N1CCC[C@H]1C(=O)N[C@@H](C)C(=O)N[C@@H](CC(C)C)C(=O)N[C@H](C(=O)N[C@@H](CO)C(=O)N[C@@H](Cc1c[nH]c2ccccc12)C(=O)N[C@H](C(=O)N[C@@H](CCCCN)C(=O)N[C@@H](CCCNC(=N)N)C(=O)N[C@@H](CCCCN)C(=O)N[C@@H](CCCNC(=N)N)C(=O)N[C@@H](CCC(N)=O)C(=O)N[C@@H](CCC(N)=O)C(N)=O)[C@@H](C)CC)[C@@H](C)CC)[C@@H](C)O)[C@@H](C)O)C(C)C)C(C)C [Melittin] | – | – | – | 8 (≈ 2.81 µM) | –
